Data taken from patent US20030092753A1, “Methods for the treatment and prevention of neurodegenerative conditions” (Wyeth, priority 1999, published 2003).

Test system: rat hippocampal slices
Assay: Reduction of azide-induced ischemic efflux of glutamate in rat hippocampal slices
Type: cell-based
Conditions: AUC vs control, statistically significant
Method: Adatanserin was evaluated for its ability to reduce the azide-induced ischemic efflux of glutamate in rat hippocampal slices. Three Krebs buffers were used in the experiments. Normal Krebs buffer consisted of a solution containing the following: (122 mM NaCl, 3 mM KCl, 24 mM NaHCO3, 10 mM glucose, 0.315 mM K2HPO4, 1.2 mM MgSO4, 4 mM CaCl2). Aglycemic Krebs buffer was similar to the normal buffer with the exception that glucose was not added. Ischemic Krebs buffer was the aglycemic solution which contained varying concentrations of sodium azide (0-30 mM).
Rat hippocampi were dissected on a cold platform and suspended in ice cold oxygenated normal Krebs buffer. The tissue was cross-chopped at 350 microns on a McIlwain tissue chopper, then resuspended and washed three times with ice cold normal Krebs buffer. […] Amino acid concentrations were analyzed with reverse phase HPLC on a catacholarine column (Keystone Scinetific, 150×3 mm) employing an 0.05 M acetate/methanol gradient. […] Amino acids were visualized by derivatization with naphthalene-2,3-dicarboxaldehyde and fluorimetric detection (Dawson, L. A. et al., Improved Temporal Resolution of Microdialysis Measurement of Glutamate and Aspartate Using Capillary Electrophoresis with Laser Induced Fluorescence Detection. J. Chromatogr. B 1997, 694, 1204-1212). […]

With `O=C(NCCN1CCN(c2ncccn2)CC1)C12CC3CC(CC(C3)C1)C2` [adatanserin, N-[2-[4-(2-pyrimidinyl)-1-piperazinyl]ethyl]tricyclo[3.3.1.13.7]decane-1-carboxamide] the “reduction of glutamate release (azide-induced ischemic efflux)” value (adatanserin 100 nM) was 72% and the “reduction of glutamate release (azide-induced ischemic efflux)” value (adatanserin 1000 nM (1 μM)) was 71%.
